Consider 12 molecules from patent US12539292B2, “BRM targeting compounds and associated methods of use” (Arvinas Operations, Inc., priority 2018, dated 2026).

The assay deals with T1, BRM (Homo sapiens, UniProt P51531).
T1 construct: In-Cell Western Screen of BRM Degradation in SW1573 Cells; endogenous in cells; host or cells: SW1573
As to the kind of experiment: In-cell Western screen of BRM degradation in SW1573 cells (Dmax and DC50). The format is cell-based. In outline: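 BRM levels were read by LI-COR in-cell Western after two-channel (800/680 nm) immunostaining of fixed, Triton-permeabilised SW1573 cells.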

Setting [1] is: BRM degradation, SW1573 cells, read-out: DC50.
Setting [2] is: BRM degradation, SW1573 cells, when tested at the top concentration of between 0.3 and 10 μM, read-out: Dmax (%) (% degraded).
[3] abbreviates: BRM degradation, SW1573 cells, tested at the top concentration of between 0.3 and 10 μM, read-out: Dmax (%) (% degraded).

Like-named read-outs stand apart in the source and are kept apart here.

T1 sequence (P51531 whole entry): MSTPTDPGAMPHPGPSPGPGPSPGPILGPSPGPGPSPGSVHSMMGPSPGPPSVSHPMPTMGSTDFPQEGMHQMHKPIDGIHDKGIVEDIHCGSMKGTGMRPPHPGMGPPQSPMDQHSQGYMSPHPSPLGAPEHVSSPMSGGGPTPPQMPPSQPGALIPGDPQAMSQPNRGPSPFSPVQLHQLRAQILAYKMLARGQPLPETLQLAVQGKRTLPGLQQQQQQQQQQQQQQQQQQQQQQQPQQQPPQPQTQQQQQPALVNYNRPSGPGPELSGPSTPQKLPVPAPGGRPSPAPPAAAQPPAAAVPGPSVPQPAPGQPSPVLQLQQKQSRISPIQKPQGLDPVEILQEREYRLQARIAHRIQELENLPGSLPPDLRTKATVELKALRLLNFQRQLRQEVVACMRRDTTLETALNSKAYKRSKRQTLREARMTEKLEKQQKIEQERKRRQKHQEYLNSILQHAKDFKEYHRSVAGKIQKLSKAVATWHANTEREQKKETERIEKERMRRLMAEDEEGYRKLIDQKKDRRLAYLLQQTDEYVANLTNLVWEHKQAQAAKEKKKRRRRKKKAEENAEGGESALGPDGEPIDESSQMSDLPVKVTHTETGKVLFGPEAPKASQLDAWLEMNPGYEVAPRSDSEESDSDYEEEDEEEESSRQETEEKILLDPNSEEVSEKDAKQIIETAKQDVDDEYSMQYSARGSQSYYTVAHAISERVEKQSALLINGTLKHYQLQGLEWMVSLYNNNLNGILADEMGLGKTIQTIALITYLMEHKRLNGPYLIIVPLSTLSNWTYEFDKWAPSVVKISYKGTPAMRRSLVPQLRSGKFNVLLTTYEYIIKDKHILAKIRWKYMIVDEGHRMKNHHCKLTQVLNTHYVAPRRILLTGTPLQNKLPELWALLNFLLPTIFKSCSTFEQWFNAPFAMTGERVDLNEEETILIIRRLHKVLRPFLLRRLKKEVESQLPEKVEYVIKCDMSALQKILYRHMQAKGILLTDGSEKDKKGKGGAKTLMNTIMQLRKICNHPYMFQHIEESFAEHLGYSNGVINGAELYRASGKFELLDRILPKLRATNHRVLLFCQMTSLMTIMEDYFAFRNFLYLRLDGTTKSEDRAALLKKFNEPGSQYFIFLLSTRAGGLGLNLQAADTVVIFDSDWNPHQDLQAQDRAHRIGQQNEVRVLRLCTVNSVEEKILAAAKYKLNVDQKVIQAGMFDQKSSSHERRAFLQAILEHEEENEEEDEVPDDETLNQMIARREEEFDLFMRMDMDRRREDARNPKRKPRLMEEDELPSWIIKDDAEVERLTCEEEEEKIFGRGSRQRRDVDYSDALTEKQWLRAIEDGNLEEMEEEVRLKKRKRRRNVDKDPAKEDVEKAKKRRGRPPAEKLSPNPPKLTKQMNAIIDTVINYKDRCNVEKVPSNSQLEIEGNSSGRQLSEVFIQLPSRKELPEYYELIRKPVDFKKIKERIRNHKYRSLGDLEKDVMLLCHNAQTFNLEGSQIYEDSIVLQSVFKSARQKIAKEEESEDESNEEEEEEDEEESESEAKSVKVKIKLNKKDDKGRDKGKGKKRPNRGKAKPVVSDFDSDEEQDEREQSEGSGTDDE

As for `Cc1ncsc1-c1ccc(CNC(=O)[C@@H]2C[C@@H](O)CN2C(=O)[C@@H](c2cc(CCCOCCOCCOCCn3cc(-c4cc(-c5ccccc5O)nnc4N)cn3)no2)C(C)C)cc1` [compound 24, (2S,4R)-1-[(2R)-2-[3-(3-[2-[2-(2-[4-[3-amino-6-(2-hydroxyphenyl)pyridazin-4-yl]-1H-pyrazol-1-yl]ethoxy)ethoxy]ethoxy]propyl)-1,2-oxazol-5-yl]-3-methylbutanoyl]-4-hydroxy-N-[[4-(4-methyl-1,3-thiazol-5-yl)phenyl]methyl]pyrrolidine-2-carboxamide], under setting [1], the DC50 was in the range of 2.5 to 10 nM. In addition, the Dmax under setting [2] is > 75%.
The corresponding values for `Cc1ncsc1-c1ccc([C@H](C)NC(=O)[C@@H]2C[C@@H](O)CN2C(=O)[C@@H](c2cc(OCC#Cc3ccc(O[C@H]4C[C@H](Oc5cc(N6C7CCC6CN(c6cc(-c8ccccc8O)nnc6N)C7)ccn5)C4)cn3)no2)C(C)C)cc1` [compound 70, (2S,4R)-1-((2R)-2-(3-((3-(5-((1r,3R)-3-((4-(3-(3-amino-6-(2-hydroxyphenyl)pyridazin-4-yl)-3,8-diazabicyclo[3.2.1]octan-8-yl)pyridin-2-yl)oxy)cyclobutoxy)pyridin-2-yl)prop-2-yn-1-yl)oxy)isoxazol-5-yl)-3-methylbutanoyl)-4-hydroxy-N-((S)-1-(4-(4-methylthiazol-5-yl)phenyl)ethyl)pyrrolidine-2-carboxamide] are < 2.5 nM and > 75%.
On to `Cc1ncsc1-c1ccc([C@H](NC(=O)[C@@H]2C[C@@H](O)CN2C(=O)[C@@H](c2cc(OCCN3CCC(O[C@H]4C[C@H](Oc5cc(N6C7CCC6CN(c6cc(-c8ccccc8O)nnc6N)C7)ccn5)C4)CC3)no2)C(C)C)C(F)F)cn1` [compound 243, (2S,4R)-1-((2R)-2-(3-(2-(4-((1r,3R)-3-((4-(3-(3-amino-6-(2-hydroxyphenyl)pyridazin-4-yl)-3,8-diazabicyclo[3.2.1]octan-8-yl)pyridin-2-yl)oxy)cyclobutoxy)piperidin-1-yl)ethoxy)isoxazol-5-yl)-3-methylbutanoyl)-N-((S)-2,2-difluoro-1-(6-(4-methylthiazol-5-yl)pyridin-3-yl)ethyl)-4-hydroxypyrrolidine-2-carboxamide], for which the half-maximal degradation concentration (DC50) under setting [1] is < 2.5 nM. In addition, under setting [3], the Dmax is > 75%.
Turning to `Cc1ncsc1-c1ccc([C@H](C)NC(=O)[C@@H]2C[C@@H](O)CN2C(=O)[C@@H](c2cc(OCCC3CCN([C@H]4C[C@H](CN5CCOC6(CCN(c7cc(-c8ccccc8O)nnc7N)CC6)C5)C4)CC3)no2)C(C)C)cc1` [compound 445, (2S,4R)-1-((R)-2-(3-(2-(1-((1r,3R)-3-((9-(3-amino-6-(2-hydroxyphenyl)pyridazin-4-yl)-1-oxa-4,9-diazaspiro[5.5]undecan-4-yl)methyl)cyclobutyl)piperidin-4-yl)ethoxy)isoxazol-5-yl)-3-methylbutanoyl)-4-hydroxy-N-((S)-1-(4-(4-methylthiazol-5-yl)phenyl)ethyl)pyrrolidine-2-carboxamide], the Dmax (SW1573, % degraded, when tested at the top concentration of between 0.3 and 10 μM, read-out: BRM Dmax (%)) is > 75%. Also, the DC50 (degradation of BRM, read-out: BRM DC50) is < 2.5 nM.
In the case of `Cc1ncsc1-c1ccc([C@H](C)NC(=O)[C@@H]2C[C@@H](O)CN2C(=O)[C@@H](c2cc(OCCN3CCC(O[C@H]4C[C@H](Oc5cc(N6C7CCC6CN(c6cc(-c8ccccc8O)nnc6N)C7)ccn5)C4)CC3)no2)C(C)C)nn1` [compound 504, (2S,4R)-1-((2R)-2-(3-(2-(4-((1r,3R)-3-((4-(3-(3-amino-6-(2-hydroxyphenyl)pyridazin-4-yl)-3,8-diazabicyclo[3.2.1]octan-8-yl)pyridin-2-yl)oxy)cyclobutoxy)piperidin-1-yl)ethoxy)isoxazol-5-yl)-3-methylbutanoyl)-4-hydroxy-N-((S)-1-(6-(4-methylthiazol-5-yl)pyridazin-3-yl)ethyl)pyrrolidine-2-carboxamide], the DC50 (BRM degradation, read-out: BRM DC50) is > 30 nM.
With `Cc1ncsc1-c1ccc([C@H](C)NC(=O)[C@@H]2C[C@@H](O)CN2C(=O)[C@H](c2cc(OCCN3CCC(O[C@H]4C[C@H](Oc5cc(N6C7CCC6CN(c6cc(-c8ccccc8)nnc6N)C7)ccn5)C4)CC3)no2)C(C)C)cc1` [compound 536, (2S,4R)-1-((2S)-2-(3-(2-(4-((1r,3S)-3-((4-(3-(3-amino-6-phenylpyridazin-4-yl)-3,8-diazabicyclo[3.2.1]octan-8-yl)pyridin-2-yl)oxy)cyclobutoxy)piperidin-1-yl)ethoxy)isoxazol-5-yl)-3-methylbutanoyl)-4-hydroxy-N-((S)-1-(4-(4-methylthiazol-5-yl)phenyl)ethyl)pyrrolidine-2-carboxamide], the DC50 (BRM degradation, SW1573 cells, Table 2D) was > 30 nM.
Take `Cc1ncsc1-c1ccc([C@H](C)NC(=O)[C@@H]2C[C@@H](O)CN2C(=O)[C@H](c2cc(CCCOCCOCCOCCn3cc(-c4cc(-c5ccccc5O)nnc4N)cn3)no2)C(C)C)cc1` [compound 196, (2S,4R)-1-((S)-2-(3-(3-(2-(2-(2-(4-(3-amino-6-(2-hydroxyphenyl)pyridazin-4-yl)-1H-pyrazol-1-yl)ethoxy)ethoxy)ethoxy)propyl)isoxazol-5-yl)-3-methylbutanoyl)-4-hydroxy-N-((S)-1-(4-(4-methylthiazol-5-yl)phenyl)ethyl)pyrrolidine-2-carboxamide]: under setting [1], the half-maximal degradation concentration (DC50) was > 30 nM. Besides, the Dmax under setting [3] was > 75%.
Regarding `Cc1nccn1-c1ccc([C@H](C)NC(=O)[C@@H]2C[C@@H](O)CN2C(=O)[C@@H](c2cc(OCCN3CCN(CCOc4cc(N5C6CCC5CN(c5cc(-c7ccccc7O)nnc5N)C6)ccn4)CC3)no2)C(C)C)cc1` [compound 76, (2S,4R)-1-((2R)-2-(3-(2-(4-(2-((4-(3-(3-amino-6-(2-hydroxyphenyl)pyridazin-4-yl)-3,8-diazabicyclo[3.2.1]octan-8-yl)pyridin-2-yl)oxy)ethyl)piperazin-1-yl)ethoxy)isoxazol-5-yl)-3-methylbutanoyl)-4-hydroxy-N-((S)-1-(4-(2-methyl-1H-imidazol-1-yl)phenyl)ethyl)pyrrolidine-2-carboxamide], the 50% degradation concentration (DC50) under setting [1] was < 2.5 nM. For the same molecule, the Dmax under setting [2] is > 75%.
For the molecule `Cc1ncsc1-c1ccc([C@@H](CCCC(=O)O)NC(=O)[C@@H]2C[C@@H](O)CN2C(=O)C(c2cc(OCCN3CCC(O[C@H]4C[C@H](Oc5cc(N6C7CCC6CN(c6cc(-c8ccccc8O)nnc6N)C7)ccn5)C4)CC3)no2)C(C)C)cc1` (stereo partly drawn) [compound 686, (5R)-5-((2S,4R)-1-(2-(3-(2-(4-((1r,3r)-3-((4-(3-(3-amino-6-(2-hydroxyphenyl)pyridazin-4-yl)-3,8-diazabicyclo[3.2.1]octan-8-yl)pyridin-2-yl)oxy)cyclobutoxy)piperidin-1-yl)ethoxy)isoxazol-5-yl)-3-methylbutanoyl)-4-hydroxypyrrolidine-2-carboxamido)-5-(4-(4-methylthiazol-5-yl)phenyl)pentanoic acid], the DC50 under setting [1] was > 30 nM.
Consider `Cc1ncsc1-c1ccc(CNC(=O)[C@@H]2C[C@@H](O)CN2C(=O)[C@@H](c2cc(OCCOCCOCCOCCOCCn3cc(-c4cc(-c5ccccc5O)nnc4N)cn3)no2)C(C)C)cc1` [compound 19, (2S,4R)-1-[(2R)-2-[3-[(14-[4-[3-amino-6-(2-hydroxyphenyl)pyridazin-4-yl]-1H-pyrazol-1-yl]-3,6,9,12-tetraoxatetradecan-1-yl)oxy]-1,2-oxazol-5-yl]-3-methylbutanoyl]-4-hydroxy-N-[[4-(4-methyl-1,3-thiazol-5-yl)phenyl]methyl]pyrrolidine-2-carboxamide], for which the DC50 under setting [1] was in the range of 10 to 30 nM. For the same molecule, the Dmax under setting [2] was > 75%.
Turning to `Cc1ncsc1-c1ccc([C@H](C)NC(=O)[C@@H]2C[C@@H](O)CN2C(=O)[C@@H](c2cc(N3CCC4(CCCN(C[C@H]5C[C@H](Oc6cc(N7C8CCC7CN(c7cc(-c9ccccc9O)nnc7N)C8)ccn6)C5)C4)CC3)no2)C(C)C)cc1` [compound 660, (2S,4R)-1-((2R)-2-(3-(2-(((1r,3R)-3-((4-(3-(3-amino-6-(2-hydroxyphenyl)pyridazin-4-yl)-3,8-diazabicyclo[3.2.1]octan-8-yl)pyridin-2-yl)oxy)cyclobutyl)methyl)-2,9-diazaspiro[5.5]undecan-9-yl)isoxazol-5-yl)-3-methylbutanoyl)-4-hydroxy-N-((S)-1-(4-(4-methylthiazol-5-yl)phenyl)ethyl)pyrrolidine-2-carboxamide], the DC50 under setting [1] is < 2.5 nM. Moreover, the maximal degradation (Dmax) (BRM degradation, SW1573 cells, read-out: Dmax (% degraded)) is > 75%.
In the case of `Cc1ncsc1-c1cc(F)c([C@@H](C)NC(=O)[C@@H]2C[C@@H](O)CN2C(=O)[C@@H](c2cc(OCCN3CCC(O[C@H]4C[C@H](Oc5cc(N6C7CCC6CN(c6cc(-c8ccccc8O)nnc6N)C7)ccn5)C4)CC3)no2)C(C)C)cn1` [compound 541, (2S,4R)-1-((2R)-2-(3-(2-(4-((1r,3R)-3-((4-(3-(3-amino-6-(2-hydroxyphenyl)pyridazin-4-yl)-3,8-diazabicyclo[3.2.1]octan-8-yl)pyridin-2-yl)oxy)cyclobutoxy)piperidin-1-yl)ethoxy)isoxazol-5-yl)-3-methylbutanoyl)-N-((R)-1-(4-fluoro-6-(4-methylthiazol-5-yl)pyridin-3-yl)ethyl)-4-hydroxypyrrolidine-2-carboxamide], under “BRM degradation, SW1573 cells, Table 2D, read-out: *DC50”, the DC50 was > 30 nM.
